# Tested on: P. falciparum W2 (chloroquine resistant) strain
# Assay: In vitro activity against cultured W2 strain P. falciparum
# Assay type: cell-based, Plasmodium falciparum
Compound,"fold more active than acid compound 4 (ester 5 vs acid 4, W2 and 3D7 strains)","IC50 (Plasmodium falciparum, W2, 48 h, read-out: IC50 (nM) (W2))"
"COC(=O)c1ccc(Oc2ccc3c(c2)B(O)OC3)cn1 [Compound 5, Methyl 5-(1-Hydroxy-1,3-dihydrobenzo[c][1,2]oxaborol-6-yloxy)picolinate]",about 5 fold,
CCN(CC)CCCC(C)Nc1ccnc2cc(Cl)ccc12 (centres unmarked) [chloroquine],,21 ± 6

# Source: PMC4500456 (Journal of Medicinal Chemistry, 2015)
